Where two headings read alike, the source gives them in different places.
Assays:
FGFR2 (h) = FGFR2 (h) (Homo sapiens, UniProt P21802); assay: FGFR2 (enzymatic assay), TR-FRET; type: biochemical; conditions: 60 min, pIC50 = -log IC50 (M), average if tested multiple times
FGFR4 (h) = FGFR4 (h) (Homo sapiens, UniProt P22455); assay: FGFR4 (enzymatic assay), TR-FRET; type: biochemical; conditions: FGFR 4 pIC50, 5 μM ATP, 60 min; pIC50 = -log IC50 (M); average if tested multiple times
[1] = biological target: T1, Ba/F3-FGFR1-transfected cells (Homo sapiens, UniProt P11362, cells depend on it, form not given); assay: Ba/F3-FGFR1 (minus IL3 or plus IL3) cellular proliferation assay, Alamar Blue; type: cell-based; conditions: minus IL3, 24 hours
T1 construct: other: minus IL3; 24 hours, Alamar Blue
Description: Ba/F3-FGFR1 (Minus IL3 or Plus IL3) (Cellular Proliferation Assay)
(§1) In a 384 well plate, 100 nl of compound dilution in DMSO was sprayed before adding 50 μl cell culture medium (phenol red free RPMI-1640, 10% FBS, 2 mM L-Glutamine and 50 μg/ml Gentamycin) containing 20000 cells per well of Ba/F3-FGFR1-transfected cells. Cells were put in an incubator at 37° C. and 5% CO2. After 24 hours, 10 μl of Alamar Blue solution (0.5 mM K3Fe(CN)6, 0.5 mM K4Fe(CN)6, 0.15 mM Resazurin and 100 mM Phosphate Buffer) was added to the wells, incubated for 4 hours at 37° C. and 5% CO2 before RFU's (Relative Fluorescence Units) (ex. 540 nm., em. 590 nm.) were measured in a fluorescence plate reader.
(§2) In this assay, the inhibitory effect of different compound concentrations (range 10 μM to 0.1 nM) was determined and used to calculate an IC50 (M) and pIC50 (−log IC50) value. As a counterscreen the same experiment was performed in the presence of 10 ng/ml murine IL3.

[2] = biological target: T2, Ba/F3-FGFR3-transfected cells (Homo sapiens, UniProt P22607, cells depend on it, form not given); assay: Ba/F3-FGFR3 (minus IL3 or plus IL3) cellular proliferation assay, Alamar Blue; type: cell-based; conditions: minus IL3; 24 hours, Alamar Blue
T2 construct: BAF3-FGFR3 (MIN IL3 Alamar Blue- pIC50); other: minus IL3; 24 hours, Alamar Blue
Description: Ba/F3-FGFR3 (Minus IL3 or Plus IL3) (Cellular Proliferation Assay)
as §1, with “Ba/F3-FGFR3-transfected” for “Ba/F3-FGFR1-transfected”
as §2

[3] = biological target: T3, Ba/F3-Flt3-transfected cells (Homo sapiens, UniProt P36888, cells depend on it, form not given); assay: Ba/F3-Flt3 (minus IL3 or plus IL3) cellular proliferation assay, Alamar Blue; type: cell-based; conditions: minus IL3, 24 hours
T3 construct: BAF3-FLT3 (MIN IL3 Alamar Blue pIC50); other: minus IL3; 24 hours, Alamar Blue
T3 sequence (P36888 1-993): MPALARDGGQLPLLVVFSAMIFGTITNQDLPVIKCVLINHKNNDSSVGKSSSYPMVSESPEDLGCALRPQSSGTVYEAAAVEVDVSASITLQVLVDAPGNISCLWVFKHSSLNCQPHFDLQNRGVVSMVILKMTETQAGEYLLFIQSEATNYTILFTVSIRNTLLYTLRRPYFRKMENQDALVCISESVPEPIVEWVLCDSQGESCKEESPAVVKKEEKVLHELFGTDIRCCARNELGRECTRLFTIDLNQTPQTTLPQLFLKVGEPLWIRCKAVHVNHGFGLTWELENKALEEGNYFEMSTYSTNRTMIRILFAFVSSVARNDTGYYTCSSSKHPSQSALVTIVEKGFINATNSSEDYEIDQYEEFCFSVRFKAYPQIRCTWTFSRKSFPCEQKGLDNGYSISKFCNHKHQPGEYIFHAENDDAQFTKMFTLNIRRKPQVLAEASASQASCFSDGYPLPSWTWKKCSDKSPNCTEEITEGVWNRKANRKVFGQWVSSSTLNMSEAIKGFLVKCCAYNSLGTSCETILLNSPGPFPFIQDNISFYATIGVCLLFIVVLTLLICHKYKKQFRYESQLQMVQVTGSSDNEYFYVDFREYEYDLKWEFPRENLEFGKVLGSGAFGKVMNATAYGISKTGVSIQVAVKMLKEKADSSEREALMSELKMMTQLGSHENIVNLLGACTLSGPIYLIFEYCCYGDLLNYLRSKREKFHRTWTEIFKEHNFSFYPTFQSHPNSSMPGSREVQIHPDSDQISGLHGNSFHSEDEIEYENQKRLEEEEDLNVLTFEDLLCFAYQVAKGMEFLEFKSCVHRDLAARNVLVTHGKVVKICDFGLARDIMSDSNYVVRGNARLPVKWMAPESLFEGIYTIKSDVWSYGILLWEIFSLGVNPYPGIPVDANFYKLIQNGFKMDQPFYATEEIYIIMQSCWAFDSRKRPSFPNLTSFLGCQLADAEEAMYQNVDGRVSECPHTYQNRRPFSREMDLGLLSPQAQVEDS
Description: Ba/F3-Flt3 (Minus IL3 or Plus IL3) (Cellular Proliferation Assay)
as §1, with “Ba/F3-Flt3-transfected” for “Ba/F3-FGFR1-transfected”
as §2

[4] = 0.4 μM ATP, read-out: FGFR 2 pIC50 (converted)

T2 sequence (P22607 whole entry, change not shown): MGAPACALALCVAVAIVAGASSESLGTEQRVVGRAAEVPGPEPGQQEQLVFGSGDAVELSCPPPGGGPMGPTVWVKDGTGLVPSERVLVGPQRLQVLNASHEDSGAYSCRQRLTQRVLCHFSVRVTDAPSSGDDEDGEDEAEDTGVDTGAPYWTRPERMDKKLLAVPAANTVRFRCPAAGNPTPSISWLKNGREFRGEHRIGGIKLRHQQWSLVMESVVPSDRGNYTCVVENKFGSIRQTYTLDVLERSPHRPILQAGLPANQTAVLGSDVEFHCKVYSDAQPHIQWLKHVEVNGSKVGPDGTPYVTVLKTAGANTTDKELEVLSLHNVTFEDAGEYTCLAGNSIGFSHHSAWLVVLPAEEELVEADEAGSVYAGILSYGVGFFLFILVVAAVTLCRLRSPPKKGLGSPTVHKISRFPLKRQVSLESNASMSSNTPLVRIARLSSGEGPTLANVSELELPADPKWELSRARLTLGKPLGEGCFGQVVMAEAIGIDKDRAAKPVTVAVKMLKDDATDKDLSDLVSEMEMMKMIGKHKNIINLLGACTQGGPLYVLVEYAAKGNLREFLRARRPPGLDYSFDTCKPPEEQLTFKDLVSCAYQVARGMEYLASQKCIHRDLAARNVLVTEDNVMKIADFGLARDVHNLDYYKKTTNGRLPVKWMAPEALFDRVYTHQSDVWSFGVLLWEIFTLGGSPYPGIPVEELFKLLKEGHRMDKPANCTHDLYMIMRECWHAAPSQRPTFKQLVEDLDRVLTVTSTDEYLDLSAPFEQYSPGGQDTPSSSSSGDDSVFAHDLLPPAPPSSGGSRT
T1 sequence (P11362 whole entry, change not shown): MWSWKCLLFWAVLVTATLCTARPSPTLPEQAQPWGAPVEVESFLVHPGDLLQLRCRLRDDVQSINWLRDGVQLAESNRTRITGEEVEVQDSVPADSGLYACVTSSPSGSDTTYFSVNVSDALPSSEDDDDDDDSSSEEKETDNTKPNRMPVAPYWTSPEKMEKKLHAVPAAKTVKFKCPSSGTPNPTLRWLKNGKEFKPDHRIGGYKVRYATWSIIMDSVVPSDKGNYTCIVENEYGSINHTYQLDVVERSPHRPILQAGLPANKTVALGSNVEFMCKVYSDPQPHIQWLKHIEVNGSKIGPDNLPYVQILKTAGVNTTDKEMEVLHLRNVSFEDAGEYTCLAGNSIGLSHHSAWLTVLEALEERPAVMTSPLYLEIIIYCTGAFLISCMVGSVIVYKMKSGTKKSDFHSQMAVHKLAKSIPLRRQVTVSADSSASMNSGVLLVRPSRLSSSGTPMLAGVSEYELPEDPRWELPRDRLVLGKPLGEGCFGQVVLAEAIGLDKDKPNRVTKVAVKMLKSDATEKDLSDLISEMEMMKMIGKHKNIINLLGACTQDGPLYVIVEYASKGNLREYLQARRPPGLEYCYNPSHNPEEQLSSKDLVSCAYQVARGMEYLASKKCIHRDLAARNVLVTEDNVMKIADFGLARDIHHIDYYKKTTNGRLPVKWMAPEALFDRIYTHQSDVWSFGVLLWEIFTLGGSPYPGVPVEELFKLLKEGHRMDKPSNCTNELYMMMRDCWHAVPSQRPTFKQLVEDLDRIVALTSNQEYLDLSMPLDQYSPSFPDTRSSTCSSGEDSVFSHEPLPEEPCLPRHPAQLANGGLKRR
Chain of FGFR4 (h) (P22455 22-802): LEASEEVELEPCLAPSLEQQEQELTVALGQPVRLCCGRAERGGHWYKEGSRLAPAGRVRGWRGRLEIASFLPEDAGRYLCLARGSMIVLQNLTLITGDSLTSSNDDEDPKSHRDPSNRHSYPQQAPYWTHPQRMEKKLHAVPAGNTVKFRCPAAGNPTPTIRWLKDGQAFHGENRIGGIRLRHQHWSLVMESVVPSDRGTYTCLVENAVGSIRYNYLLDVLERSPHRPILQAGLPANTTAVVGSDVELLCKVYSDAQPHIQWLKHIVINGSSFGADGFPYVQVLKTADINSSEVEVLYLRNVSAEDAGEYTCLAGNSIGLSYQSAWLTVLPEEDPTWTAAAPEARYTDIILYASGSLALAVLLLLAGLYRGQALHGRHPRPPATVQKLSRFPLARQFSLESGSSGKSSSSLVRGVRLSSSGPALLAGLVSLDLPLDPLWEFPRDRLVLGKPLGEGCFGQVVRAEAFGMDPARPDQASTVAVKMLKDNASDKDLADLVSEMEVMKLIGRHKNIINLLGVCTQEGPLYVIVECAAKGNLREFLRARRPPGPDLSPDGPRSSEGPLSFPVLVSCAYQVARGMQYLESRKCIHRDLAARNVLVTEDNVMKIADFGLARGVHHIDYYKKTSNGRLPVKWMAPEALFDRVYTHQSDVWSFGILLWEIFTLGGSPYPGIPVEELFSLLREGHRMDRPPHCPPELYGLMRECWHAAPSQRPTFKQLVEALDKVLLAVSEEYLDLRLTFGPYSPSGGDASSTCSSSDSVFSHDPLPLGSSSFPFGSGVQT
Chain of FGFR2 (h) (P21802 22-821): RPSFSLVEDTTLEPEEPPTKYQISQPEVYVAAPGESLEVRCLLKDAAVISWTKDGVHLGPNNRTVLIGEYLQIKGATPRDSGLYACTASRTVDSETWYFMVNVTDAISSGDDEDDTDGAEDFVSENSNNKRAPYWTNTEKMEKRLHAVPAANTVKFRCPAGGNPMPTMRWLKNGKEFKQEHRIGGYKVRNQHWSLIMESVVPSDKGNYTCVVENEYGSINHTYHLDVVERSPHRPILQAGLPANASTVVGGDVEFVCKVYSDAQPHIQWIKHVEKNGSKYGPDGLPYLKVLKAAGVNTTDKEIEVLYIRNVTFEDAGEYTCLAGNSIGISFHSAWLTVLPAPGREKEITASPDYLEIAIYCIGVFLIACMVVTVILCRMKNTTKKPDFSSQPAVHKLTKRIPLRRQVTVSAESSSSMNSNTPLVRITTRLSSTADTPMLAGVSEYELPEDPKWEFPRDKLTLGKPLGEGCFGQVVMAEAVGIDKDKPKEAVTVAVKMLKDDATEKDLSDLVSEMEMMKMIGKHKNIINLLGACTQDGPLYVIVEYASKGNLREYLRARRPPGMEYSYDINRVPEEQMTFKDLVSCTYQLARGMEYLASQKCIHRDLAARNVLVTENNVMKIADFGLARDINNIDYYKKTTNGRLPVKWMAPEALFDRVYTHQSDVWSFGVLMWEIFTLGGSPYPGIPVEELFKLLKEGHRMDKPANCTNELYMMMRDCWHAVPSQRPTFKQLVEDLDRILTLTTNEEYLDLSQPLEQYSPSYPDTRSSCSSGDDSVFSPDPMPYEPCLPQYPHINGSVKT

| Compound | IC50 (FGFR2 (h); [4]) [M] | IC50 (FGFR4 (h)) [M] | BAF3-FGFR1 (MIN IL3 pIC50) [1] | BAF3-FGFR3 (MIN IL3 Alamar Blue- pIC50) [2] | BAF3-FLT3 (MIN IL3 Alamar Blue pIC50) [3] | IC50 (FGFR2 (h); FGFR 2 pIC50, 0.4 μM ATP) [M] |
| --- | --- | --- | --- | --- | --- | --- |
| COc1cc(Nc2ccc3ncc(-c4cnn(C5CCCCO5)c4)cc3c2)cc(OC)c1 (stereo not shown) [Int. 8] | 3.72e-08 | 4.9e-07 | 5.29 | ~5.53 | <5 | – |
| COc1cc(OC)cc(N(CC(O)C(F)(F)F)c2ccc3ncc(-c4cnn(C)c4)cc3c2)c1 (single isomer, unassigned) [Compound 24] | 4.9e-09 | 7.94e-09 | 7.73 | ~7.67 | <5 | – |
| COc1cc(OC)cc(N(CC#Cc2nccc(OC)n2)c2ccc3ncc(-c4cnn(C)c4)cc3c2)c1 [Compound 16] | 1.55e-08 | 3.72e-08 | >8 | >8 | 5.19 | – |
| COc1cc(OC)cc(N(CCCN2CCCC2CNS(=O)(=O)C(F)(F)F)c2ccc3ncc(-c4cnn(C)c4)cc3c2)c1 (stereo not shown) [Compound 47] | 3.89e-09 | 2.19e-09 | ~8.03 | 8.46 | 5.14 | – |
| COc1cc(OC)cc(N(CCNC(C)C)c2ccc3ncc(-c4cnn(C)c4)cc3c2)c1 [Compound 1] | 4.95e-09 | 1.38e-08 | 7.4 | 7.555 | ~5 | – |
| COc1cc(OC)cc(N(CCNC(C)C)c2ccc3ncc(-c4cnn(C5CCCCO5)c4)cc3c2)c1 (stereo not shown) [Compound 22] | 3.89e-09 | 4.37e-09 | 7.85 | 7.78 | 5.22 | – |
| COc1cc(OC)cc(N(CCCN2CCCO2)c2ccc3ncc(-c4cnn(C)c4)cc3c2)c1 [Compound 19] | – | 6.03e-08 | 6.32 | 6.26 | 6.03 | 1.15e-08 |
| COc1cc(OC)cc(N(CC(O)C(F)(F)F)c2ccc3ncc(-c4cnn(C)c4)cc3c2)c1 (single isomer, unassigned) [Compound 25] | 1.95e-08 | 6.03e-08 | 6.57 | 6.76 | <5 | – |

The remaining lines, values ahead:

| IC50 (FGFR2 (h); [4]) [M] | IC50 (FGFR4 (h)) [M] | BAF3-FGFR1 (MIN IL3 pIC50) [1] | BAF3-FGFR3 (MIN IL3 Alamar Blue- pIC50) [2] | BAF3-FLT3 (MIN IL3 Alamar Blue pIC50) [3] | IC50 (FGFR2 (h); FGFR 2 pIC50, 0.4 μM ATP) [M] | Compound |
| --- | --- | --- | --- | --- | --- | --- |
| 7.76e-09 | 1.45e-07 | 6.14 | 6.17 | <5 | – | COc1cc(OC)cc(N(Cc2nccn2S(=O)(=O)N(C)C)c2ccc3ncc(-c4cnn(C)c4)cc3c2)c1 [Compound 9] |
| 3.02e-08 | 1.51e-07 | 5.7 | 5.79 | 5.2 | – | C#CCN(c1cc(OC)cc(OC)c1)c1ccc2ncc(-c3cnn(C)c3)cc2c1 [Compound 6] |
| 2.57e-09 | 5.37e-09 | 7.55 | 7.57 | 5.09 | – | COc1cc(OC)cc(N(CCNC(C)C)c2ccc3ncc(-c4cn[nH]c4)cc3c2)c1 [Compound 21] |
| 2.29e-09 | 4.47e-09 | 6.75 | ~6.77 | <5 | – | COc1cc(OC)cc(N(Cc2ncc[nH]2)c2ccc3ncc(-c4ccncc4)cc3c2)c1 [Compound 57] |
| 2.29e-09 | 2e-08 | 6.67 | 6.97 | <5 | – | COc1cc(OC)cc(N(CCCN)c2ccc3ncc(-c4cnn(C)c4)cc3c2)c1 [Compound 11] |
| 1.45e-08 | 3.16e-08 | 7.24 | 7.62 | 5.23 | – | COc1cc(OC)cc(N(CC#Cc2nccn2C)c2ccc3ncc(-c4cnn(C)c4)cc3c2)c1 [Compound 48] |

Source: patent US10039759B2, “Quinolines as FGFR kinase modulators” (priority 2011, dated 2018)
